In US5057513A, “Spiro-thiazepine derivatives useful as PAF antagonists” (Fujisawa Pharmaceutical Co., Ltd., priority 1989, dated 1991) one finds ED50 and IC50 data, which are given here for three compounds.

SMILES strings stand for the structures. ≈ marks a conversion by molar mass, not a printed value. Read-outs that look alike come from different tables or passages of the source.

For assay [1], the system named is PAF-induced vascular permeability increase. Nature of the assay: Inhibition of PAF-induced vascular permeability increase. It is filed as in vivo, 6-week-old male ddY mice. The following applies: Mus musculus, ip; mice; intraperitoneally, 5 minutes before Evan's blue; PAF 50 ng intradermally; read-out: ED50 (effective dose required to inhibit PAF-induced vascular permeability increase by 50%). As for the experimental part:
PAF (50 ng) was injected intradermally to the depilated back of 6-week-old male ddY mice. Evan's blue (1 mg) was injected intravenously 5 minutes before the PAF injection, and the test compound was administered intraperitoneally 5 minutes before the Evan's blue injection. Thirty minutes later, the animals were killed and the area of dye leakage was measured.
The inhibition was expressed as ED50 value, i.e. effective dose (mg/kg) required to inhibit PAF-induced vascular permeability increase by 50%.

The test system of assay [2] is platelet aggregation induced with PAF. The assay can be described thus: Test 1 (Inhibition of platelet aggregation). Type of assay: cell-based, male Japanese white rabbit. The following applies: Oryctolagus cuniculus; rabbit platelet rich plasma; final concentration of PAF usually 32 nM; read-out: IC50 (concentration required to inhibit the platelet aggregation response by 50%). On the procedure:
Blood was collected through the polyethylene catheter introduced into the carotid artery of male Japanese white rabbit (2.5 to 3 kg body weight). The blood was anticoagulated with 1 volume of 3.8% sodium citrate to 9 volume of blood. Platelet rich plasma (PRP) was prepared by centrifugation of the blood at 150 g for 10 minutes at room temperature. The PRP was diluted with platelet poor plasma obtained by further centrifugation of the blood at 1,000 g for 20 minutes. The platelet number was 5×10^5 cells/mm^3. Platelet aggregation induced with PAF [1-O-hexadecyl-2-O-acetyl-sn-glycero-3-phosphorylcholine] was measured by the nephelometric technique of Born and Cross [cf. Journal of Physiology 168, 178-188 (1963)] using HKK Hema tracer (trade name, made by Niko Bioscience Inc.).
Activity of inhibitor was expressed as IC50 value, i.e. concentration required to inhibit the platelet aggregation response by 50%. The final concentration of PAF was usually 32 nM.

In assay [3] the test system is PAF-induced lethality. The assay can be described thus: Effect of the test compound on the PAF-induced lethality in rats. Type of assay: in vivo, male Wistar rats. The following applies: Rattus norvegicus, survival for 24 hours. On the procedure: Conscious male Wistar rats, 150-200 g body weight, 7 weeks old, were used in the experiment on PAF-induced lethality. The animals were fasted before the experiment. Test compound was given orally 60 minutes before (or intravenously simultaneously with) intravenous PAF injection (10 μg/kg) into a tail vein. Survival of the animals was recorded for 24 hours after intravenous PAF injection.

Assay [4] relates to endotoxin-induced disseminated intravascular coagulation (serum FDP). Nature of the assay: Effect of the test compound on the endotoxin-induced disseminated intravascular coagulation. Type of assay: in vivo, male Wister rats. The settings on record: Rattus norvegicus, rats. On the procedure:
Conscious male Wister rats, 150-200 g body weight, 7 weeks old, were used in the experiment on endotoxin-induced disseminated intravascular coagulation (DIC). The animals were fasted before the experiment. A 10 mg/kg dose of endotoxin (E. coli) dissolved in saline was given as an injection via tail vein. Test compound was given orally 60 minutes before and 6 hours after endotoxin. The intravenous administration of the test compound into a tail vein was simultaneous with intravenous injection of endotoxin.
Arterial blood samples were taken 4 hours (Test compound; intravenously) and 24 hours (Test compound; orally) after endotoxin for measurements of serum FDP (fibrin degradation products), respectively. FDP was determined by the latex aggregation test.

Assay [5] relates to PAF-induced bronchoconstriction. The assay can be described thus: Effect of the test compound on PAF-induced bronchoconstriction in the guinea-pig. The following applies: Cavia porcellus, po, orally 30 minutes before PAF (0.64 μg/ml, 1 ml/kg), read-out: ED50 (effective dose of the test compound to inhibit the PAF-induced bronchoconstriction by 50%). Type of assay: in vivo, Male Hartley guinea-pigs. As for the experimental part:
Male Hartley guinea-pigs (400-500 g) were anesthetized with sodium pentobarbital (25 mg/kg, intraperitoneally). The right jugular vein was catheterized for injection of PAF (0.64 μg/ml, 1 ml/kg), and the animals were tracheotomized and ventilated with a respiratory pump (Harvard B-34, 5 ml/stroke, 60 strocks/minutes).
The test compound was administered orally 30 minutes before challenge with PAF.
(ED50 : effective dose of the test compound to inhibit the PAF-induced bronchoconstriction by 50%).

For `O=C1CC2(CCCCC2Cc2cccc(Cl)c2)S(=O)(=O)CCN1Cc1cccnc1` (stereo not shown) [1-(3-Chlorophenylmethyl)-10-(3-pyridylmethyl)-11-oxo-7-thia-10-azaspiro[5.6]dodecane 7,7-dioxide], the ED50 in assay [1] is 2.9 mg/kg.

Consider `CN(C)CCN1C(=O)CC2(CCCCC2Cc2ccccc2Cl)[S+]([O-])c2ccccc21` (stereo not shown) [2'-(2-Chlorophenylmethyl)-4,5-dihydro-4-oxo-5-{2-(N,N-dimethylamino)ethyl}spiro[1,5-benzothiazepine-2(3H), 1'-cyclohexane] 1-oxide], for which the IC50 in assay [2] came to 0.17 µg/mL (≈ 0.37 µM).

Take `O=C1C[C@]2(CCCC[C@H]2Cc2ccccc2)S(=O)(=O)CCN1Cc1cccnc1` [(1S,6S)-1-Phenylmethyl-10-(3-pyridylmethyl)-11-oxo-7-thia-10-azaspiro[5.6]dodecane 7,7-dioxide]: the ED50 came to 1 mg/kg in assay [3] (intravenous, simultaneously with PAF 10 μg/kg i.v., read-out: ED50 (mg/kg), PAF-induced lethality, intravenous); 2 mg/kg in assay [3] (oral, 60 minutes before PAF 10 μg/kg i.v., read-out: ED50 (mg/kg), PAF-induced lethality, oral); 2.4 mg/kg in assay [4] (intravenous, simultaneous with endotoxin 10 mg/kg, serum FDP at 4 hours, read-out: ED50 (mg/kg), endotoxin-induced DIC, intravenous); 6.8 mg/kg in assay [4] (oral, 60 minutes before and 6 hours after endotoxin 10 mg/kg, serum FDP at 24 hours, read-out: ED50 (mg/kg), endotoxin-induced DIC, oral); 3.7 mg/kg in assay [5].
